# Measured values taken from ChEMBL document CHEMBL1201862, “PubChem BioAssay data set” (2004).
# The source made the active and inactive calls.
# What was measured:
# [1] = target: Cytochrome P450 2C19 (Homo sapiens, UniProt P33261); assay: Cytochrome panel assay with activity outcomes. Panel member name: p450-cyp2c19 Compounds with AC50 equal or less than 10 uM are considered active; format: functional
# [2] = target: T1, Heat shock factor protein 1 (Mus musculus, UniProt P38532); assay: decrease of HSF1-responsive luciferase luminescence – cell-based, NIH3T3, dose retest, confirmation (AID 2382); format: functional;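 further: NIH3T3 fibroblasts with HSF1-driven luciferase reporter stressed by proteasome inhibitor MG132; luminescence from HSF1-driven luciferase expression after 8 hours of MG132 stress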
# T1 sequence (P38532 whole entry): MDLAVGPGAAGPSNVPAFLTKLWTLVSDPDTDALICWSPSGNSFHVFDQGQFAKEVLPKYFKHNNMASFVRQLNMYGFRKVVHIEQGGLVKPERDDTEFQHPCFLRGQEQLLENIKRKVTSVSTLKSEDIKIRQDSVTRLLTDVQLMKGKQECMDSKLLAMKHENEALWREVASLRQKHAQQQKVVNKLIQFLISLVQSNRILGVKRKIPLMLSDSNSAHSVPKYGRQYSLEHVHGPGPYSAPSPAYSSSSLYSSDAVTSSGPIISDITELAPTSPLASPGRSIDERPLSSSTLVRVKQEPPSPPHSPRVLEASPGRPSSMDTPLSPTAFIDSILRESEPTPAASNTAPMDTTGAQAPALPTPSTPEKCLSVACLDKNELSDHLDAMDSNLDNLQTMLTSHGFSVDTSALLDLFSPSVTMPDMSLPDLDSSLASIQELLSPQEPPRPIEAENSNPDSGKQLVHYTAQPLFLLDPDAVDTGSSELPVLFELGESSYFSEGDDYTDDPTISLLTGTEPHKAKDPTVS
# [3] = target: Cytochrome P450 3A4 (Homo sapiens, UniProt P08684);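 further: CYP3A4 tested as one member of a cytochrome P450 panel screen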
# [4] = Trypanosoma cruzi growth suppression in host cells – NIH3T3 host cells, beta-gal luminescence, confirmation (AID 2044); format: functional, cell-based;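 further: intracellular parasites grown in NIH/3T3 mouse fibroblasts as host cells; luminescent beta-galactosidase reporter signal from transgenic T. cruzi replicating inside host cells; inhibitors lower the luminescence signal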
# [5] = NIH3T3 cell viability loss – ATP luminescence, mouse fibroblasts, counter-screen, dose response (AID 2010); format: functional, cell-based;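 further: cells exposed to compound for about 90 hours before reading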
# [6] = target: Cytochrome P450 2D6 (Homo sapiens, UniProt P10635);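 further: CYP2D6 member of a cytochrome P450 panel assay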
# [7] = system: Streptococcus; assay: GAS UMAA2166 growth inhibition – luminescence, BacTiterGlo, counter-screen for streptokinase expression inhibitor project, dose response (AID 1915); format: functional, organism-based;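 further: potency for reduction of bacterial viability or growth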
# [8] = system: Streptococcus sp. 'group A'; assay: Streptococcus pyogenes SK(-)GAS viability under kanamycin – luminescence, BacTiterGlo, confirmation, counter-screen for streptokinase expression inhibitor project, dose response (AID 1900); format: functional, organism-based
# Chain of Cytochrome P450 2C19 (P33261 whole entry): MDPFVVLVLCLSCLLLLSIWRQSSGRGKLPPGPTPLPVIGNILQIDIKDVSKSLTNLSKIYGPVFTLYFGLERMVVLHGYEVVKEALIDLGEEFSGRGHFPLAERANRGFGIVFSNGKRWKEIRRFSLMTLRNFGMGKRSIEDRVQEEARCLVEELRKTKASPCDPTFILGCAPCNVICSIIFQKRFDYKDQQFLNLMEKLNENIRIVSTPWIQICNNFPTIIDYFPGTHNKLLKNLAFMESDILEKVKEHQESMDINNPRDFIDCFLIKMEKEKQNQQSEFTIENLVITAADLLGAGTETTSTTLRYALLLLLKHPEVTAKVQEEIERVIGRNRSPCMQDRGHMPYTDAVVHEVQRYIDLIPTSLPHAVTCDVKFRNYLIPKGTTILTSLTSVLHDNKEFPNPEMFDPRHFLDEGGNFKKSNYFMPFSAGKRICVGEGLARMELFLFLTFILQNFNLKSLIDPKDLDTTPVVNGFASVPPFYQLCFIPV
# Chain of Cytochrome P450 2D6 (P10635 whole entry): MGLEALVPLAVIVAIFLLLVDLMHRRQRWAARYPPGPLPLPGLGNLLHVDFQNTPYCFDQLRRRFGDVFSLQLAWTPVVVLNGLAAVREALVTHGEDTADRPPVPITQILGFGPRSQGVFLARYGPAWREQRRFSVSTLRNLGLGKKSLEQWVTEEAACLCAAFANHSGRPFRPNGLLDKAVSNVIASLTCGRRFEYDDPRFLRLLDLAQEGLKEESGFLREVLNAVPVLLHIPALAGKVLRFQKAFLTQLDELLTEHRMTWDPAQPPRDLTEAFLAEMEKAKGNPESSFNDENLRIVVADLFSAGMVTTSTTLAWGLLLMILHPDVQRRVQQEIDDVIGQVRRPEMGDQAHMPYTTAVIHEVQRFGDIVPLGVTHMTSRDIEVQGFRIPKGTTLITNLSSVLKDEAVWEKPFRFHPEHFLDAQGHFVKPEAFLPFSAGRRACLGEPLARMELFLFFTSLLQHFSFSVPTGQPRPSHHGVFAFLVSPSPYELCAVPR
# Chain of Cytochrome P450 3A4 (P08684 whole entry): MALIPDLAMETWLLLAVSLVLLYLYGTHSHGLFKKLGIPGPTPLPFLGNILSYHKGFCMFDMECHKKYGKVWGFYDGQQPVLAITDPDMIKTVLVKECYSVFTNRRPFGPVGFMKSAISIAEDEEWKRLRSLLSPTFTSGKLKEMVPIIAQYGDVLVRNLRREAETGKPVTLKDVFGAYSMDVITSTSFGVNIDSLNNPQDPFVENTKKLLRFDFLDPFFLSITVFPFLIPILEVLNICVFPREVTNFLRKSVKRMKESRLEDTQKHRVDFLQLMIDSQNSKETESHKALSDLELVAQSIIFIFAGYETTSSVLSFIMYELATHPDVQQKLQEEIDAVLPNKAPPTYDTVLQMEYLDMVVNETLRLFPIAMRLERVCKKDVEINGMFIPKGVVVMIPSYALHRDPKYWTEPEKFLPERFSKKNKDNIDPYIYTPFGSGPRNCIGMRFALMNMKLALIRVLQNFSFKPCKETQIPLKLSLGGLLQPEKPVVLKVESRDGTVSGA
compound,measurement,setting,value
N[C@H](CCCC(=O)O)C(=O)O,AC50,[1],inconclusive
O=C(O)C1C2C=CC(O2)C1C(=O)Nc1ccc2c(c1)OCCO2 (configuration not stated),EC50,[2],25.9 µM (active)
O=C1CCC[C@@H](C(C(=O)OCc2ccccc2)C(=O)OCc2ccccc2)C1,AC50,[1]; read-out: AC50,3.98 µM (inconclusive)
same,AC50,[3],3.98 µM (inconclusive)
COc1cc(NC(=O)c2cc(-c3ccc4c(c3)OCO4)on2)cc(OC)c1OC,EC50,[4],0.115 µM (active)
same,EC50,[5],> 30 µM (not active)
Cn1c(=O)c2nc(CCS)[nH]c2n(C)c1=O,AC50,[3],10 µM (inconclusive)
Cc1ccc(OCC(=O)Nc2cnc(O)nc2O)cc1C,EC50,[2],> 195 µM (not active)
CC(C)Cn1c(N)c(C(=O)CSc2nc3ccccc3c(=O)n2CCCN2CCOCC2)c(=O)n(C)c1=O,EC50,[4],1.5 µM (active)
same,EC50,[5],> 60 µM (not active)
C=CC[C@@H]1C=C[C@H](O/N=C(\C)CCN2CCc3nc(CC)c(CC)cc3C2)[C@H](CO)O1,AC50,[6],3.98 µM (inconclusive)
CCOc1ccc(C(=O)COC(=O)Cc2nnc(O)c3ccccc23)cc1,EC50,[2],> 195 µM (not active)
OC(COc1ccc(F)cc1Cl)CN1CCC(Cc2ccccc2)CC1 (configuration not stated),EC50,[4],4.04 µM (active)
same,EC50,[5],> 30 µM (not active)
CN1CCN(c2nc(Nc3cccc(C(F)(F)F)c3)nc(N3CCOCC3)n2)CC1,EC50,[4],1.78 µM (active)
same,EC50,[5],10.3 µM (active)
O=C(O)CN1CCN(Cc2ccc(F)cc2Cl)C1=O,AC50,[6],20 µM (inconclusive)
Cc1ccc(-n2c(=O)cc(N3CCN(Cc4ccccc4)CC3)[nH]c2=O)cc1,EC50,[2],> 195 µM (not active)
CC(C)CCNC(=O)c1ccc2c(SCC(=O)O)c3c(nc2c1)CCC3,EC50,[2],> 195 µM (not active)
Cc1nn(-c2ccc([N+](=O)[O-])cc2)c2c1C(c1ccc(OC(F)F)cc1)N1C(=N2)C(=O)Nc2ccccc21 (configuration not stated),EC50,[4],1.31 µM (active)
same,EC50,[5],> 60 µM (not active)
COC(=O)CSc1ccc2nnc(-c3ccc(F)cc3)n2n1,AC50,[1]; read-out: AC50,28.2 µM (inconclusive)
CCNc1ncc2nc(-c3cccs3)c(=O)n(CCc3ccccc3)c2n1,AC50,[6],20 µM (inconclusive)
same,AC50,[3],15.8 µM (inconclusive)
CCCn1c(-c2cccs2)nc2nc3ccccc3nc21,AC50,[6],28.2 µM (inconclusive)
CCOC(=O)c1cc2c(C(F)(F)F)cc(-c3ccccc3)nc2o1,AC50,[1]; read-out: AC50,25.1 µM (inconclusive)
Cc1nc2cnc(Nc3ccccc3)nc2n(C[C@H]2CCCO2)c1=O,AC50,[3],15.8 µM (inconclusive)
Clc1ccc(CNCCCSc2ncccn2)cc1Cl,EC50,[4],1.19 µM (active)
same,EC50,[5],> 60 µM (not active)
Nc1cc(N)nc(SCC(=O)c2ccccc2)n1,AC50,[1]; read-out: AC50,7.08 µM (inconclusive)
same,AC50,[3],35.5 µM (inconclusive)
Cc1cc(Nc2ccc3c(c2)OCCO3)c2cc(Cl)ccc2n1,EC50,[2],17.2 µM (active)
CC1(C)OC(=O)N(Cc2ccco2)C1(C)O (configuration not stated),AC50,[1]; read-out: AC50,14.1 µM (inconclusive)
CCN(CC)S(=O)(=O)c1ccc(C(=O)Nc2ncn(Cc3ccccc3)n2)cc1,AC50,[1]; read-out: AC50,25.1 µM (inconclusive)
Cc1c(C2=CCN(S(=O)(=O)c3ccc(Br)cc3)CC2)c2ccccc2n1C,EC50,[2],> 195 µM (not active)
Cc1noc(C)c1-c1nccc(NCCN2CCOCC2)n1,AC50,[6],20 µM (inconclusive)
same,AC50,[3],20 µM (inconclusive)
Cc1ccc(S(=O)(=O)NCCSc2nnnn2C)cc1,AC50,[3],14.1 µM (inconclusive)
Cc1nc(C)c(-c2nnc(-c3cccc(S(=O)(=O)N(C)C)c3)o2)cc1C(=O)NN,EC50,[2],> 195 µM (not active)
CCOC(=O)c1nc(Nc2cc(C)cc(C)c2)c2ccccc2n1,EC50,[4],2.85 µM (active)
same,EC50,[5],> 30 µM (not active)
O=C(NCCc1csc(-c2ccccc2)n1)c1ccccc1F,EC50,[4],0.531 µM (active)
same,EC50,[5],> 60 µM (not active)
NS(=O)(=O)c1ccc(Nc2nc(-c3cccc([N+](=O)[O-])c3)cs2)cc1,EC50,[4],4.08 µM (active)
same,EC50,[5],> 60 µM (not active)
CC12CCC3C(CC=C4CC5(CCC43C)OCCO5)C1CCC2=O (configuration not stated),EC50,[2],> 195 µM (not active)
COCCn1c(=O)c(-c2cccs2)nc2cnc(OCc3ccccc3)nc21,AC50,[3],3.16 µM (inconclusive)
COc1ccccc1-c1cncnc1N(C)Cc1ccco1,AC50,[6],25.1 µM (inconclusive)
C/C=C(\C)CN1CCC(n2nccc2NC(=O)c2ccc(OC)cc2)CC1,EC50,[4],0.703 µM (active)
same,EC50,[5],> 60 µM (not active)
COc1ccccc1CN1CCCC(CN(CCN(C)C)C(=O)C2CCCC2)C1 (configuration not stated),EC50,[2],> 195 µM (not active)
O=S(=O)(Nc1cccc(Oc2cnccn2)c1)c1ccc(F)cc1,EC50,[2],> 195 µM (not active)
COc1cccc(-c2cc(NCc3cnc(C)cn3)ncn2)c1,AC50,[1]; read-out: AC50,0.398 µM (inconclusive)
Cc1ccc([C@@]2(C)CC/C(=N/N=C3\CC[C@](C)(c4ccc(C)c(C)c4)c4cc(C)c(C)cc43)c3cc(C)c(C)cc32)cc1C,AC50,[1],inconclusive
CN1CCN(c2ncnc3ccc(-c4ccc(C(=O)N(C)C)cc4)cc23)CC1,AC50,[3],25.1 µM (inconclusive)
CCOCCn1c(SCC(=O)OCc2ccccc2)nc2c1c(=O)[nH]c(=O)n2C,EC50,[2],> 195 µM (not active)
CC(C)(C)C1CCC2(CC1)CCN(CCCN1CCOCC1)CC2,AC50,[6],3.98 µM (inconclusive)
Cc1ccc(-n2c(C)cc(/C=C(\C#N)C(=O)NCC3CCCO3)c2C)cc1 (configuration not stated),AC50,[6],14.1 µM (inconclusive)
same,AC50,[3],31.6 µM (inconclusive)
O=C(NCc1ccccc1)c1onc(CSc2ccccc2)c1C(=O)NCC1CC1,EC50,[4],4.28 µM (active)
same,EC50,[5],> 60 µM (not active)
CCOc1cccc(CN2CCCC(CCC(=O)NCc3ccccc3F)C2)c1O (configuration not stated),EC50,[4],0.222 µM (active)
same,EC50,[5],> 60 µM (not active)
CCOc1ccc(CN(C)CC(=O)Nc2cc(OC)c([N+](=O)[O-])cc2C)cc1,EC50,[4],0.404 µM (active)
same,EC50,[5],> 30 µM (not active)
O=C(CN1CCN(Cc2ccccc2)CC1)c1ccc(Br)cc1,AC50,[1]; read-out: AC50,14.1 µM (inconclusive)
same,AC50,[3],14.1 µM (inconclusive)
Cc1cc(/C=C2\SC(=O)NC2=O)c(C)n1-c1ccc(N2CCOCC2)cc1,EC50,[7],4.72 µM (active)
same,EC50,[8],1.32 µM (active)
NS(=O)(=O)c1ccc(/N=N\c2cc3ccccc3c(C(=O)O)c2O)cc1,AC50,[3],3.16 µM (inconclusive)
COC(=O)N1CCC2(CCN(Cc3ccc(C#N)cc3)CC2)CC1,AC50,[1]; read-out: AC50,0.1 µM (inconclusive)
CC(NC(=O)CN1C(=O)NC(Cc2ccccc2)(Cc2ccccc2)C1=O)C12CC3CC(CC(C3)C1)C2 (configuration not stated),EC50,[4],2.81 µM (active)
same,EC50,[5],> 30 µM (not active)
O=C(NCCN1CCN(C(=O)c2cc3ccccc3oc2=O)CC1)c1cc2ccccc2oc1=O,AC50,[1]; read-out: AC50,3.98 µM (inconclusive)
same,AC50,[3],14.1 µM (inconclusive)
Brc1ccccc1OCCCCCN1CCCC1,EC50,[4],2.22 µM (active)
same,EC50,[5],> 30 µM (not active)
Cc1c(C=O)c2ccccn2c1C(=O)c1ccncc1,AC50,[6],25.1 µM (inconclusive)
same,AC50,[3],10 µM (inconclusive)
CCOC(=O)N1CCN(CC(O)COC2CC(C)CC(C)(C)C2)CC1 (configuration not stated),EC50,[2],> 195 µM (not active)
COc1ccc(COC(=O)N/N=C2/C[C@@H](O)[C@@H](O)[C@@H]3[C@@H]4C(=O)N(c5cccc(Oc6ccccc6)c5)C(=O)[C@H]4CC[C@@H]23)cc1,AC50,[6],3.16 µM (inconclusive)
Cc1nnc(Sc2cc(C(=O)NCCCN(C)Cc3ccccc3)c3ccccc3n2)s1,EC50,[4],0.521 µM (active)
same,EC50,[5],> 60 µM (not active)
O=C(c1ccc(CN2CCc3ccccc3C2)cc1)N1CCc2ccccc2C1,AC50,[3],3.98 µM (inconclusive)
CN(C)c1ccc(-c2noc(C3CCN(C(=O)Nc4ccc(Cl)cc4)CC3)n2)cc1,EC50,[2],> 195 µM (not active)
CCCCN1C(=O)NC(=O)/C(=C(/CC)NCc2ccc(F)cc2)C1=O,AC50,[3],28.2 µM (inconclusive)
c1cncc(-c2nc(N3CCNCC3)c3ccccc3n2)c1,AC50,[3],31.6 µM (inconclusive)
COc1ncc2ncc(=O)n(Cc3cccs3)c2n1,AC50,[3],1.26 µM (inconclusive)
CN(C)CCCN(C(=O)c1ccc(S(=O)(=O)N2CCc3ccccc32)cc1)c1nc2c(Cl)cccc2s1,EC50,[4],0.206 µM (active)
same,EC50,[5],20.2 µM (active)
O=C(c1ccccc1)N1CCN(CC2CC=CCC2)CC1 (configuration not stated),EC50,[2],> 195 µM (not active)
CC(=O)NC1(C(F)(F)F)C(=O)N(Cc2ccccc2)C2=C1C(=O)CC(C)(C)C2 (configuration not stated),AC50,[1]; read-out: AC50,15.8 µM (inconclusive)
same,AC50,[3],14.1 µM (inconclusive)
CC(O)(CS(=O)(=O)c1cccc(C(F)(F)F)c1)C(=O)Nc1ccc(C(F)(F)F)cc1 (configuration not stated),AC50,[6],0.0224 µM (inconclusive)
COc1cc(N)c(Cl)cc1C(=O)N[C@@H]1CN2CCC1CC2,AC50,[6],39.8 µM (inconclusive)
N#Cc1cccc(-c2cncnc2NCc2ccccc2)c1,AC50,[6],20 µM (inconclusive)
CC(C)N(CCC(=O)c1ccc2ccccc2c1)Cc1ccccc1,AC50,[3],39.8 µM (inconclusive)
